Experimental data reported in PubChem BioAssay AID248 (DTP/NCI, 2004).
Where “and” joins values, the source holds several entries; their conditions need not be identical. Identical values can stand only once. Inconclusive results and toxic doses are left out. No stated cut-off is given here; in the data, active means T/C of 150% or more; inactive means T/C below 125%.

System: L1210 leukemia ip in BDF1 mice, survival T/C
Experiment: NCI In Vivo Anticancer Drug Screen. Data for tumor model L1210 Leukemia (intraperitoneal) in B6D2F1 (BDF1) mice
Details: endpoint: mean survival time, higher = longer survival
Outline: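 Transplanted-tumor mice were given test agent; controls received vehicle only. Survival readings from the two groups were divided (treated over control).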

[1] = dose: 100.0 mg/kg/injection, schedule: Q01DX009 (ip), vehicle: Klucel (hydroxypropylcellulose) (HPC)
[2] = dose: 100.0 mg/kg/injection, schedule: Q04DX003 (ip), vehicle: Klucel (hydroxypropylcellulose) (HPC)
[3] = dose: 200.0 mg/kg/injection, schedule: Q01DX009 (ip), vehicle: Klucel (hydroxypropylcellulose) (HPC)
[4] = dose: 200.0 mg/kg/injection, schedule: Q04DX003 (ip), vehicle: Klucel (hydroxypropylcellulose) (HPC)
[5] = dose: 400.0 mg/kg/injection, schedule: Q01DX009 (ip), vehicle: Klucel (hydroxypropylcellulose) (HPC)
[6] = dose: 400.0 mg/kg/injection, schedule: Q04DX003 (ip), vehicle: Klucel (hydroxypropylcellulose) (HPC)
[7] = dose: 25.0 mg/kg/injection, schedule: Q01DX009 (ip), vehicle: saline
[8] = dose: 50.0 mg/kg/injection, schedule: Q01DX009 (ip), vehicle: saline
[9] = dose: 100.0 mg/kg/injection, schedule: Q01DX009 (ip), vehicle: saline
[10] = dose: 25.0 mg/kg/injection, schedule: Q01DX009 (ip), vehicle: saline with Tween-80
[11] = dose: 50.0 mg/kg/injection, schedule: Q01DX009 (ip), vehicle: saline with Tween-80
[12] = dose: 100.0 mg/kg/injection, schedule: Q01DX009 (ip), vehicle: saline with Tween-80
[13] = dose: 100.0 mg/kg/injection, schedule: Q01DX001 (ip), vehicle: saline
[14] = dose: 200.0 mg/kg/injection, schedule: Q01DX001 (ip), vehicle: saline
[15] = dose: 400.0 mg/kg/injection, schedule: Q01DX001 (ip), vehicle: saline
[16] = dose: 200.0 mg/kg/injection, schedule: Q01DX009 (ip), vehicle: saline with Tween-80
[17] = dose: 100.0 mg/kg/injection, schedule: Q01DX001 (ip), vehicle: carboxymethylcellulose (CMC)
[18] = dose: 200.0 mg/kg/injection, schedule: Q01DX001 (ip), vehicle: carboxymethylcellulose (CMC)
[19] = dose: 400.0 mg/kg/injection, schedule: Q01DX001 (ip), vehicle: carboxymethylcellulose (CMC)
[20] = dose: 400.0 mg/kg/injection, schedule: Q01DX009 (ip), vehicle: saline with Tween-80
[21] = dose: 100.0 mg/kg/injection, schedule: Q04DX003 (ip), vehicle: saline with Tween-80
[22] = dose: 200.0 mg/kg/injection, schedule: Q04DX003 (ip), vehicle: saline with Tween-80
[23] = dose: 400.0 mg/kg/injection, schedule: Q04DX003 (ip), vehicle: saline with Tween-80
[24] = dose: 100.0 mg/kg/injection, schedule: Q04DX002 (ip), vehicle: saline with Tween-80
[25] = dose: 200.0 mg/kg/injection, schedule: Q04DX002 (ip), vehicle: saline with Tween-80
[26] = dose: 400.0 mg/kg/injection, schedule: Q04DX002 (ip), vehicle: saline with Tween-80
[27] = dose: 100.0 mg/kg/injection, schedule: Q04DX002 (ip), vehicle: Klucel (hydroxypropylcellulose) (HPC)

Measured: T/C

CC(C)CCCC(C)CC1CC(C)CCC1O (stereo not drawn)
inactive: [1] 93 % of control | [2] 98 % of control | [3] 92 % of control | [4] 94 % of control | [5] 101 % of control | [6] 96 % of control

CC(=O)Oc1ccc(N(CCCl)CCCl)cc1OC(C)=O
inactive: dose: 150.0 mg/kg/injection, schedule: Q01DX001 (ip), vehicle: other 98 % of control

CC1(C)N=C(N)N=C(N)N1c1ccc(OCC(=O)N2CCOCC2)cc1
inactive: dose: 12.5 mg/kg/injection, schedule: Q01DX009 (ip), vehicle: saline 106 % of control | [7] 102 % of control | [8] 95 % of control | [9] 96 % of control

OCCC1(CCO)CCCCC1
inactive: [10] 99 % of control | dose: 25.0 mg/kg/injection, schedule: Q04DX003 (ip), vehicle: saline with Tween-80 114 % of control | [11] 95 % of control | dose: 50.0 mg/kg/injection, schedule: Q04DX003 (ip), vehicle: saline with Tween-80 104 % of control | [12] 95 % of control and 108 % of control

CC(C)N(CSc1ccc([N+](=O)[O-])cc1)CSc1ccc([N+](=O)[O-])cc1
inactive: [13] 100 % of control | [14] 96 % of control | [15] 98 % of control

CCC(O)C(C)(O)C(=O)O (stereo not drawn)
inactive: [11] 96 % of control | [12] 96 % of control | [16] 92 % of control

CC1(C)OC2C(=O)C3COC(O3)C2O1 (stereo not drawn)
inactive: [17] 106 % of control | [18] 106 % of control | [19] 103 % of control

COc1ccc(C(=O)CCC(=O)O)cc1
inactive: [12] 102 % of control | [16] 93 % of control | [20] 91 % of control

COCC/C(COC)=N/N
inactive: dose: 50.0 mg/kg/injection, schedule: Q01DX001 (ip), vehicle: saline 103 % of control | [13] 103 % of control | [14] 122 % of control

COc1c(N)cc2c(c1C)OC(C)(C)C=C2
inactive: [10] 109 % of control | [11] 101 % of control | [21] 101 % of control and 94 % of control | [22] 100 % of control

CC(=O)Nc1ccc(NC(=O)c2cccc(F)c2)cc1
inactive: [1] 86 % of control | [3] 102 % of control | [5] 91 % of control

COC(=O)c1cc([N+](=O)[O-])ccc1Br
inactive: [21] 101 % of control | [22] 93 % of control | [23] 104 % of control

CC1CC=C(C(=O)O)CC1 (stereo not drawn)
inactive: dose: 50.0 mg/kg/injection, schedule: Q01DX001 (ip), vehicle: other 90 % of control | dose: 100.0 mg/kg/injection, schedule: Q01DX001 (ip), vehicle: other 95 % of control | dose: 200.0 mg/kg/injection, schedule: Q01DX001 (ip), vehicle: other 93 % of control | dose: 400.0 mg/kg/injection, schedule: Q01DX001 (ip), vehicle: other 95 % of control

CCN(CC)CCOc1ccc(C2=C(c3ccccc3)CCc3cc(OC)ccc32)cc1
inactive: [17] 90 % of control | [18] 92 % of control | [19] 90 % of control

O=CC(Br)C(Br)c1ccccc1 (stereo not drawn)
inactive: [21] 98 % of control

O=C(C[n+]1ccccc1)N/N=C/c1ccc(Cl)cc1
inactive: [10] 98 % of control | [11] 96 % of control | [12] 100 % of control

O=C1OC(c2cccc(Cl)c2)=N/C1=C\c1cc(Br)ccc1O
inactive: [24] 89 % of control | [25] 96 % of control | [26] 89 % of control

O=C1c2cc(-c3ccccc3)c(-c3ccccc3)cc2C(c2ccccc2)(c2ccccc2)C1Br (stereo not drawn)
inactive: [21] 94 % of control | [22] 91 % of control | [23] 93 % of control

C/C=C/C(=O)Nc1cccc(OC(=O)NC(C)(C)C)c1
inactive: [12] 91 % of control | [20] 86 % of control

O=C1/C(=C/c2ccco2)CCC/C1=C\c1ccco1
inactive: dose: 100.0 mg/kg/injection, schedule: Q01DX001 (ip), vehicle: acetone 95 % of control | [24] 92 % of control | dose: 200.0 mg/kg/injection, schedule: Q01DX001 (ip), vehicle: acetone 87 % of control | [25] 95 % of control | dose: 400.0 mg/kg/injection, schedule: Q01DX001 (ip), vehicle: acetone 97 % of control | [26] 98 % of control

O=C1OCCS1
inactive: [7] 107 % of control | [8] 104 % of control | [9] 101 % of control and 105 % of control

Cc1cc(C)c(-c2c(C)cc(C)cc2[N+](=O)[O-])c([N+](=O)[O-])c1
inactive: dose: 100.0 mg/kg/injection, schedule: Q04DX003 (ip), vehicle: saline 93 % of control | dose: 200.0 mg/kg/injection, schedule: Q04DX003 (ip), vehicle: saline 96 % of control | dose: 400.0 mg/kg/injection, schedule: Q04DX003 (ip), vehicle: saline 86 % of control

C(/CCc1ccccc1)=N\Nc1nnc(N/N=C/CCc2ccccc2)c2ccccc12
inactive: dose: 50.0 mg/kg/injection, schedule: Q01DX001 (ip), vehicle: carboxymethylcellulose (CMC) 102 % of control | [17] 105 % of control | [18] 102 % of control

O=C(Oc1cccc(OC(=O)c2ccccc2)c1)c1ccccc1
inactive: [21] 100 % of control | [22] 91 % of control | [23] 88 % of control

CC(C)(C)C1CCC(C(N)=O)CC1 (stereo not drawn)
inactive: [27] 103 % of control | dose: 200.0 mg/kg/injection, schedule: Q04DX002 (ip), vehicle: Klucel (hydroxypropylcellulose) (HPC) 107 % of control | dose: 400.0 mg/kg/injection, schedule: Q04DX002 (ip), vehicle: Klucel (hydroxypropylcellulose) (HPC) 103 % of control

O=C(OCc1ccccc1CN1CCCCC1)c1ccc([N+](=O)[O-])cc1
inactive: dose: 25.0 mg/kg/injection, schedule: Q04DX002 (ip), vehicle: Klucel (hydroxypropylcellulose) (HPC) 101 % of control | dose: 50.0 mg/kg/injection, schedule: Q04DX002 (ip), vehicle: Klucel (hydroxypropylcellulose) (HPC) 94 % of control | [27] 90 % of control

Cc1ccc(N)cc1
inactive: [13] 114 % of control | [14] 102 % of control

CCCc1nnnn1C12CC3CC(CC(C3)C1)C2
inactive: [13] 102 % of control | [14] 100 % of control | [15] 93 % of control

COc1c([N+](=O)[O-])cc(C)nc1Cl
inactive: [13] 95 % of control | [14] 101 % of control | [15] 101 % of control

C/C(=C/C=C(/C)C(=O)O)C(=O)O
inactive: [17] 95 % of control | [2] 101 % of control | [18] 95 % of control | [4] 115 % of control | [19] 98 % of control | [6] 93 % of control
